Laboratory results reported in patent US4207326A, “Antimicrobial quaternary pyrazole derivatives” (Cilag-Chemie A.G., priority 1979, dated 1980).
Where two headings read alike, the source gives them in different places.

Tests used:
C. albicans = assay: Antimycotic activity: Minimum Inhibitory Concentration; assay type: cell-based, Candida albicans ATCC 10231
Protocol: (§1) The antimicrobial activity was determined by inoculation of the test microorganism into suitable growth media containing solutions of the compounds at concentrations of 100, 50, 10, 5, 1.0, 0.5 and 0.1 μg/ml. The reference antibiotics used were Gentamicin for the antibacterial tests and Amphotericin B for the antimycotic and antifungal tests. After incubation the antimicrobial activity was recorded as the Minimal Inhibitory Concentration (M.I.C.), i.e., the lowest concentration preventing macroscopically visible growth, for each test compound against each organism.
(§2) An initial solution of each formula (I) compound to be tested in sterile distilled water was prepared at a concentration of 1000 μg/ml. With appropriate dilutions using sterile distilled water, additional solutions were prepared at concentrations of 500, 100, 50, 10, 5 and 1 μg/ml.
(§3) The two species, C. albicans and C. tropicalis, were maintained on Sabouraud-Dextrose Agar (Oxoid CM41) and cultures for the preparation of the inoculum were incubated on this agar at 37° C. for 48 hours. 4.5 Ml volumes of citric acid-phosphate buffer pH 5.5 plus Yeast-Nitrogen Base (Difco 0392-15) were then inoculated from the agar cultures and incubated at 37° C. for 48 hours. 0.1 Ml aliquots of these cultures were then added to 100 ml volumes of sterile physiological saline to give the final inocula.
(§4) (b) For the tests on each of the C. albicans, C. tropicalis and C. neoformans strains and each of the test and reference compounds, a series of 8 tubes containing 4.5 ml volumes of citric acid-phosphate buffer pH 5.5 plus Yeast-Nitrogen Base (Difco 0392-15) were prepared. To 7 of these were added 0.5 ml volumes of the final solutions of the test compounds, giving final concentrations in the broths of 100, 50, 10, 5, 1.0, 0.5 and 0.1 μg/ml. To the eighth tube in each series was added 0.5 ml of the solvent used and diluted as for the preparation of the 1000 μg/ml solution of the compound. This tube was used as the growth control. The tubes were then inoculated with 0.1 ml aliquots of the inocula prepared as in "(b) Fungi" above. The tubes inoculated with the C. albicans and C. tropicalis were inoculated at 37° C. for 72 hours and the tubes inoculated with the C. neoformans straim were incubated at 30° C. for 72 hours. […] The tubes were then examined for evidence of growth as shown by turbidity of the medium and the lowest concentration of the test compound which prevented fungal growth was recorded as the Minimal Inhibitory Concentration. This test procedure was carried out on two separate days.

C. tropicalis = assay: as above; assay type: cell-based, Candida tropicalis NCPF 3111; details: Candida tropicalis, pH 5.5, 37° C., 72 hours
Protocol: as §1, §2, §3, §4

C. neoformans = assay: as above; assay type: cell-based, Cryptococcus neoformans NCPF 3184; details: Cryptococcus neoformans, pH 5.5, 30° C., 72 hours
Protocol: as §1, §2
The C. neoformans was also maintained on Sabouraud-Dextrose Agar (Oxoid CM 41), but in this case cultures for the preparation of the inoculum were incubated on this agar at 30° C. for 48 hours. A 4.5 ml volume of citric acid-phosphate buffer pH 5.5 plus Yeast-Nitrogen Base (Difco-0392-15) was then inoculated from the agar culture and incubated at 30° C. for 48 hours. A 0.1 ml aliquot of this culture was then added to 100 ml sterile physiological saline to give the final inoculum.
as §4

A. corymbifera = assay: Antifungal activity: Minimum Inhibitory Concentration; assay type: cell-based, Absidia corymbifera NCPF 2001
Protocol: as §1, §2
A. corymbifera NCPF 2001
(§5) The A. corymbifera, A. fumigatus, S. schenkii, T. rubrum, T. mentagrophytes, M. canis and P. verrucosa strains were all maintained on Sabouraud-Dextrose Agar (Oxoid CM 41) by incubating for 14 days at 27° C. To prepare the inocula 30 ml volumes of Sabouraud-Liquid medium (Oxoid CM 147) were inoculated from the agar cultures and incubated at 27° C. until heavy uniform growth resulted. The mycelial growth was then broken up by shaking with glass beads.
(§6) 1 Ml aliquots were removed from each of the cultures for the purpose of making viable counts and the cultures were then held at 4° C. The viable counts were made by preparing serial ten-fold dilutions of the cultures in sterile physiological saline and spreading on plates of Sabouraud-Dextrose Agar (Oxoid CM 41) which were then incubated at 27° C. for 14 days. When the viable counts had confirmed that each of the inocula contained approximately 10^6 colony forming units (C.F.U.) per ml the cultures were withdrawn from the refrigerator and used as the inocula for the tests.
(§7) (c) For the tests on each of the remaining seven strains and each of the test and reference compounds, a series of 8 tubes containing 4.5 ml volumes of Sabouraud-Liquid Medium (Oxoid CM 147) were prepared. To 7 of these were added 0.5 ml volumes of the final solutions of the test compounds, giving final concentrations in the broths of 100, 50, 10, 5, 1.0, 0.5 and 0.1 μg/ml. To the eighth tube in each series was added 0.5 ml of the solvent used and diluted as for the preparation of the 500 μg/ml solution of the compound. This tube was used as a growth control. The tubes were then inoculated with 0.1 ml aliquots of the inocula prepared as in "(b) Fungi" above. The tubes were then incubated at 27° C. with continuous shaking for a period of one week. The tubes were then examined for evidence of growth as shown by the presence of mycelial growth in the medium and the lowest concentration of the test compound which prevented fungal growth was recorded as the Minimal Inhibitory Concentration. This test procedure was carried out on two separate days.

A. fumigatus = assay: as above; assay type: cell-based, Aspergillus fimigatus (A. fumigatus) NCPF 2140
Protocol: as §1, §2, §5, §6, §7

S. schenkii = assay: as above; assay type: cell-based, Sporotrichon schenkii NCPF 3182
Protocol: as §1, §2, §5, §6, §7

T. rubrum = assay: as above; assay type: cell-based, Trichophyton rubrum NCPF 197
Protocol: as §1, §2, §5, §6, §7

T. mentagrophytes = assay: as above; assay type: cell-based, Trichophyton mentagrophytes NCPF 410
Protocol: as §1, §2
T. mentagrophytes NCPF 410
as §5, §6, §7

M. canis = assay: as above; assay type: cell-based, Microsporum canis NCPF 351
Protocol: as §1, §2, §5, §6, §7

P. verrucosa = assay: as above; assay type: cell-based, Phialophore verrucosa NCPF 1119
Protocol: as §1, §2, §5, §6, §7

S. aureus = assay: Antibacterial activity: Minimum Inhibitory Concentration; assay type: cell-based, Staphylococcus aureus ATCC 6538; details: 24 hours
Protocol: as §1, §2
(§8) They were cultured and maintained on Tryptone Soy Agar (Oxoid CM 131), with the addition of 10% horse blood for the S. pyogenes.
(§9) To prepare the organisms as inocula for the test, slopes of this medium were streaked with the organisms and incubated at 37° C. for 24 hours. 4.5 Ml volumes of Brian-Heart Infusion Broth (Oxoid CM 225) were then inoculated with a platinum loop from the agar slope cultures and incubated for 24 hours at 37° C. The final inocula were then prepared by adding 0.1 ml aliquots of the Brain-Heart Infusion Broth cultures to 100 ml volumes of sterile physiological saline.
(§10) (a) For the test on each of the bacterial strains and each of the test and reference compounds, a series of 8 tubes containing 4.5 ml volumes of Brain-Heart Infusion Broth (Oxoid CM 225) were prepared. To 7 of these were added 0.5 ml volumes of the final solutions of the test compouns, giving final concentrations in the broths of 100, 50, 10, 5, 1.0, 0.5 and 0.1 μg/ml. To the eighth tube in each series was added 0.5 ml of the solvent used and diluted as for the preparation of the 1000 μg/ml solution of the compound. This tube was used as the growth control. The tubes were inoculated with 0.02 ml aliquots of the inocula prepared in accordance with "(a) Bacteria" above, and incubated at 37° C. for 24 hours. The tubes were then examined for evidence of bacterial growth as shown by turbidity of the medium and the lowest concentration of the test compound which prevented bacterial growth was recorded as the Minimal Inhibitory Concentration. This test procedure was carried out on two separate days.

S. pyogenes = assay: as above; assay type: cell-based, Streptococcus pyogenes NCTC 8198; details: 24 hours
Protocol: as §1, §2, §8, §9, §10

E. coli = assay: as above; assay type: cell-based, Escherichia coli ATCC 8739; details: 24 hours
Protocol: as §1, §2, §8, §9, §10

P. mirabilis = assay: as above; assay type: cell-based, Proteus mirabilis NCTC 8559; details: P. mirabilis, 37° C., 24 hours
Protocol: as §1, §2, §8, §9, §10

P. aeruginosa = assay: as above; assay type: cell-based, Pseudomonas aeruginosa ATCC 9027; details: P. aeruginosa, 37° C., 24 hours
Protocol: as §1, §2, §8, §9, §10

C[C@@H]1[C@H](O)[C@@H](C)/C=C/C=C/C=C/C=C/C=C/C=C/C=C/[C@H](O[C@@H]2O[C@H](C)[C@@H](O)[C@H](N)[C@@H]2O)C[C@@H]2O[C@](O)(C[C@@H](O)C[C@@H](O)[C@H](O)CC[C@@H](O)C[C@@H](O)CC(=O)O[C@H]1C)C[C@H](O)[C@H]2C(=O)O [Amphotericin B, reference compound]
0.5 µg/mL: MIC (C. neoformans; pH 5.5, read-out: Minimum Inhibitory Concentrations, C. neoformans, Day 2)
1 µg/mL: Minimum Inhibitory Concentrations (C. albicans; C. albicans, Day 2, pH 5.5, 37° C., 72 hours) | MIC (C. albicans; Candida albicans, pH 5.5, read-out: Minimum Inhibitory Concentrations) | MIC (C. tropicalis; pH 5.5, read-out: Minimum Inhibitory Concentrations, C. tropicalis, Day 1) | MIC (C. tropicalis; pH 5.5, read-out: Minimum Inhibitory Concentrations, C. tropicalis, Day 2) | MIC (C. neoformans; pH 5.5, read-out: Minimum Inhibitory Concentrations, C. neoformans, Day 1) | Minimum Inhibitory Concentration (M. canis; M. canis, Day 2, 27° C., one week) | MIC (M. canis; Microsporum canis, read-out: Minimum Inhibitory Concentration)
50 µg/mL: Minimum Inhibitory Concentration (S. schenkii; S. schenkii, Day 2, 27° C., one week) | MIC (S. schenkii; read-out: Minimum Inhibitory Concentration) | Minimum Inhibitory Concentration (T. rubrum; T. rubrum, Day 2, 27° C., one week) | MIC (T. rubrum; Trichophyton rubrum, read-out: Minimum Inhibitory Concentration) | Minimum Inhibitory Concentration (T. mentagrophytes; T. mentagrophytes, Day 1, 27° C., one week) | MIC (T. mentagrophytes; Trichophyton mentagrophytes, read-out: Minimum Inhibitory Concentration)
10 µg/mL: Minimum Inhibitory Concentration (P. verrucosa; P. verrucosa, Day 2, 27° C., one week) | MIC (P. verrucosa; Phialophora verrucosa, read-out: Minimum Inhibitory Concentration)
5 µg/mL: Minimum Inhibitory Concentration (A. corymbifera; A. corymbifera, Day 2, 27° C., one week) | MIC (A. corymbifera; Lichtheimia corymbifera, read-out: Minimum Inhibitory Concentration) | Minimum Inhibitory Concentration (A. fumigatus; A. fumigatus, Day 2, 27° C., one week) | MIC (A. fumigatus; Aspergillus fumigatus, read-out: Minimum Inhibitory Concentration)

Gentamicin [reference compound]
0.5 µg/mL: Minimum Inhibitory Concentration (S. aureus; Day 1, 37° C.) | Minimum Inhibitory Concentration (S. aureus; Day 2, 37° C.) | Minimum Inhibitory Concentration (S. pyogenes; Day 1, 37° C.) | Minimum Inhibitory Concentration (S. pyogenes; Day 2, 37° C.)
5 µg/mL: Minimum Inhibitory Concentration (P. mirabilis; Day 1) | Minimum Inhibitory Concentration (P. mirabilis; Day 2)
10 µg/mL: Minimum Inhibitory Concentration (E. coli; Day 1, 37° C.) | Minimum Inhibitory Concentration (E. coli; Day 2, 37° C.)
1 µg/mL: Minimum Inhibitory Concentration (P. aeruginosa; Day 1) | Minimum Inhibitory Concentration (P. aeruginosa; Day 2)
